Patent US9783833B2, “Biocatalytic methods to convert cyclohexane oxidation process waste streams to useful products” (INVISTA NORTH AMERICA S.A. R.L., priority 2011, dated 2017)

What was measured:
[1] = tested on: wild-type Yarrowia lipolytica; assay: Chemo-stat fermentation with cell retention using NVR as carbon and energy source; settings: for Flux: steady state, 2% (v/v) NVR, ~215 mL/h, biomass dilution rate ~0.025 h^-1
Source text: The experimental set-up provided for a NVR Feed, Nutrient Feed and Base Feed (12% (v/v) NH3 (aq.)) that was filter sterilized into the fermenter via peristaltic pumps. Furthermore, a peristaltic pump provided the necessary cross-flow retentate flow rate to the hollow fibre membrane, a peristaltic pump allowed withdrawal of permeate and a peristaltic pump allowed for a biomass bleed from the fermenter.
The chemo-stat's control philosophy entailed manual feed ratio control of the NVR Feed to Nutrient Feed rates, pH control via the Base Feed, temperature control via cooling water supply to the fermenter's jacket, fixed aeration & agitation rates via the respective feedback loops, fixed cross-flow rate via the retentate pump's variable speed drive, manual level control via the permeate pump and manual dilution rate control via the bleed pump.
The initial charge minimal media was prepared (6.7 g/L yeast base without amino acids+(NH4)2SO4, 15 g/L glucose, 75 mg/L citric acid (Mr.=210 g/mol), 5.8 g/L sodium citrate (Mr.=294.1 g/mol), 10.7 g/L K2HPO4 (Mr.=174 g/mol), 5.2 g/L KH2PO4 (M=136.1 g/mol), and 2 mL/L antifoam) and the Nutrient Feed was prepared (6.7 g/L yeast base without amino acids+(NH4)2SO4, 75 mg/L citric acid (Mr.=210 g/mol), 5.8 g/L sodium citrate (Mr.=294.1 g/mol), 10.7 g/L K2HPO4 (Mr.=174 g/mol), 5.2 g/L KH2PO4 (M=136.1 g/mol), and 2 mL/L antifoam). The control parameters for the fermenter were set up (A1 and A2: 1 vvm aeration, pH 7.0, DO calibration at pH 7.0 and 1 vvm to 100% saturation, 28° C., 750 rpm initial agitation until glucose depletion, 1250 rpm final agitation after glucose depletion, manual antifoam).
The fermenter was inoculated with a 10% (v/v) inoculum from a wild-type Yarrowia lipolytica shake flask that was grown overnight from a cryopreserved stock.

Y. lipolytica strains = assay: Growth of yeasts in the presence of lactones; type: cell-based, Yarrowia lipolytica; settings: 0.1 to 1 g/L lactone; strains adapted to 3% NVR, especially Iss#137
Source text: FIG. 18 contains three line graphs showing the growth of selected yeasts in the presence of 0.1-1 g/L lactones (γ-butyrolactone, ε-caprolactone, and δ-valerolactone). Iss#125 is a S. cerevisiae control strain. Iss#134 is a Y. lipolytica strain isolated from plates after slow growth on 3% (v/v) NVR+YPD media. Iss#137 is a Y. lipolytica strain isolated from chemo-stat using synthetic NVR component feed.
A cell retention chemo-stat was required to avoid cell wash-out. […] HPLC analysis confirmed that NVR contains a high concentration (ca. 92 g/L) of valerolactone.

[2] = Hydrolysis of oligomers by cutinases (drop plates); type: biochemical; settings: expressed in E. coli or Y. lipolytica; 12 hours at 28° C.
Source text: Cutinases from F. solani and A. oryzae were expressed in E. coli BL21 Star with His6 tags using the pET151/D-TOPO vector and the TOPO cloning system (Invitrogen) and purified on His-trap columns. The enzymes were also expressed as secreted extracellular proteins in a Y. lipolytica host strain deficient in the extracellular lipases LIP2, LIP7 & LIP8 (See, Example 7) and the supernatants concentrated 10 fold. Activity was confirmed using p-nitrophenyl butyrate as substrate, commercial lipase as a positive control and the concentrated soluble extract from E. coli transformed with the empty vector as negative control. […] (See, FIG. 26). This is further illustrated by the increase in monomeric acids, especially in the C-6 monomer components (hydroxycaproic acid, adipic acid, caproic acid) and valeric acid, released from the oligomers when cutinases (10 μl supernatant) were incubated with 4% NVR or 4% COP acid (v/v) (1 ml) overnight (See, FIGS. 27A and B).

[3] = Agar plate clearance zone assay on COP acid; type: biochemical; settings: lipases; 4% (v/v) COP acid, pH = 7; 1 U/well, 24 hours
Source text: (§1) Screening methods for hydrolysis of oligomeric esters in NVR and COP acid with commercially available lipases and esterases were verified using commercially available caprolactonediol (CPL) polymers with a range of molecular weights. Two screening methods were used to identify candidate enzymes, including an agar plate assay where radial enzyme diffusion produces clearance zones if the oligomer in the agar is hydrolyzed, and a biotransformation assay in which the hydrolysis of the polymer to monomers was assayed by HPLC with UV detection or LC-MS to quantify the concentrations of monomers. […]
(§2) For plate assays, agar plates (1.5% agarose) containing 1-4% polycaprolactone (PCL), NVR or COP acid (v/v) were prepared with 50 mM citrate, Tris/HCl, or phosphate buffers to assay enzymes for hydrolytic activity at pH 3.5, 5, 7, or 8. […] Clearance zones were measured after 24 hours. […] FIG. 5 is a bar graph comparing the relative activity of esterases at different pHs as measured by the diameter of the clearance zone in the plate assay.

[4] = Plate assays, results summarised in words; type: biochemical; settings: synthetic PCL diol, NVR and/or COP acid oligomers as named in the sentence; pH 5-8
Method: For plate assays, agar plates (1.5% agarose) containing 1-4% polycaprolactone (PCL), NVR or COP acid (v/v) were prepared with 50 mM citrate, Tris/HCl, or phosphate buffers to assay enzymes for hydrolytic activity at pH 3.5, 5, 7, or 8. The molecular weight of PCL is 530 g/mol. Wells with a ca. 3 mm diameter were made in the plates, and enzyme added (1 U/well). Clearance zones were measured after 24 hours. Tables 3 and 4 show the results of the agar plate assay with commercial esterases and lipases, respectively, for hydrolysis of oligomers in NVR, COP acid and caprolactone polymers. […] FIG. 5 is a bar graph comparing the relative activity of esterases at different pHs as measured by the diameter of the clearance zone in the plate assay.
See, Table 3, 4 and FIG. 4.

[5] = Agar plate clearance zone assay on NVR; type: biochemical; settings: lipases; 1% (v/v) NVR, pH = 7; 1 U/well, 24 hours
Source text: as §1, §2

[6] = Lactone hydrolases incubated with NVR (LC/MS); type: biochemical; settings: 4% v/v NVR, pH 7.0, 60 minutes
Source text: (§3) The lactone hydrolase from Acinobacter was expressed (See, FIG. 3) as a secreted protein in Y. lipolytica with all major extracellular lipases deleted (strain JMY1212, Δlip-2,7,8,11). The secreted hydrolase was concentrated 10 fold by centrifugal filtration of the supernatant (Amicon® Ultra Ultracel® 10K). This enzyme, as well as the lactone hydrolyzing enzymes from Brevibacterium epidermidis and Euglena gracilis were also expressed in E. coli BL21 Star™ (DE3) cells as His tagged proteins using the pET151 inducible expression vector, and the enzymes were purified using HisTrap™ FF columns (GE Healthcare), and concentrated as before by centrifugal filtration to 1 ml after elution from the columns. Activity assays were performed in phosphate buffer (50 mM, pH 7.0) and ZnCl2 (75 mM) containing the substrate (valerolactone, caprolactone, NVR, or COP acid) (4% v/v). Reactions were started by adding 50 μl concentrated enzyme and incubated with shaking for 60 minutes. Reactions were terminated by the addition of 500 μl acetonitrile and analyzed by LC/MS. The buffer control contained 5% glycerol in place of enzyme. To assess hydrolysis of oligomers in COP acid, 10 μl enzyme was added to agar plates (1.5% (w/v)) containing 4% (v/v) COP acid. All experiments were performed in triplicate. […]

[7] = Lactone hydrolase activity assay (LC/MS); type: biochemical; settings: 4% v/v substrate, pH 7.0, 60 minutes
Source text: as §3

O=C(O)CCCCO [5-hydroxyvaleric acid]
Flux [1]: 32 % of valerate uptake

O=C(O)CCCCCO [6-hydroxycaproic acid]
Flux [1]: 18 % of valerate uptake

O=C(O)CCCCC(=O)O [adipic acid]
steady state flux of catabolism relative to the catabolism of valeric acid ([1]; not told): 18%

CCCC(=O)O [butyric acid]
steady state flux of catabolism relative to the catabolism of valeric acid ([1]; Table 6): 7% | Flux [1]: 7 % of valerate uptake

CCCCCC(=O)O [caproic acid]
steady state flux of catabolism relative to the catabolism of valeric acid ([1]; Table 6): 42% | Flux [1]: 42 % of valerate uptake

O=C(O)CCCC(=O)O [glutaric acid]
Flux [1]: 12 % of valerate uptake

O=C1CCCO1 [γ-butyrolactone]
Flux [1]: 0 % of valerate uptake

O=C1CCCCO1 [δ-valerolactone]
effect of lactone on growth of Y. lipolytica strains (Y. lipolytica strains): inhibitory

AoC: Aspergillus oryzae cutinase (EMBL D38311.1, UniProt P52956)
hydrolysis of oligomers in NVR and COP acid (clearance zones) [2]: able to hydrolyze oligomers in NVR and COP acid

B1: L7: Commercial lipase from Rhizomucor miehei (protein, UniProt P19515 95-363, looked up)
Lipase: SIDGGIRAATSQEINELTYYTTLSANSYCRTVIPGATWDCIHCDATEDLKIIKTWSTLIYDTNAMVARGDSEKTIYIVFRGSSSIRNWIADLTFVPVSYPPVSGTKVHKGFLDSYGEVQNELVATVLDQFKQYPSYKVAVTGHSLGGATALLCALDLYQREEGLSSSNLFLYTQGQPRVGDPAFANYVVSTGIPYRRTVNERDIVPHLPPAAFGFLHAGEEYWITDNSPETVQVCTSDLETSDCSNSIVPFTSVLDHLSYFGINTGLCT
Substrate Clearance Zone Diameter [3]: 2.2 | hydrolytic activity in plate assays (in words) [4]: large clearance zones | Substrate Clearance Zone Diameter [5]: 1.7

B2: ChnC from Acinobacter: Lactone hydrolase, GenBank AAG10029.1, SEQ ID NO:1 (protein)
chain: MNSTQSNTQFLFDLYANWSRRMQENPNMTIEDFRSMFDEWHQPTLEPEEVSYKFDVVAGVEGLWIYPKDADLSKVIIYTHGGGFAVGSSASHRKLVGHLAKYLGVSAFVVDYRRSPEHVFPAQIQDVTAVYKELLQRGFTAKNMLTAGDSAGGNLAISTVLNLRNEGIELPGAVIAFSPWLDMEHKGETLISNDATDALITVDLLKGMSQMFLGEHGDPANPLANPLKANYQVFPRLYINAGSVESLVDNATRLADIAKKEGVDVTLSVVDNMQHVFPFLAGRASEADQELAKIAQWFKA
modifications: Acinetobacter sp. SE19
hydrolysis of valerolactone in NVR [6]: hydrolyzed valerolactone | lactone hydrolyzing activity [7]: highest activity

B3: ChnC from Brevibacterium: Lactonohydrolase, GenBank AAK73167.2, SEQ ID NO:2 (protein, listed as Brevibacterium epidermidis)
chain: MPTSPPTVSATPMTWSSRRTGRPTSASSASTSWAGPITSSPMSSRQHRRHLGVVASGLSFPNGMVITPDGKTLIVNELFGNKITAFDIGADGKLANKRDFANFGEIGDEPDVAKRIEAATIVPDGLALDAEGAVWIANTVNQNATRIAEGGQILDTVDTAPEGIFAVALGGDDGKTLFLCAAPDWDEGARSKAREGRMLATTVAVPHAGRP
hydrolysis of valerolactone in NVR [6]: hydrolyzed valerolactone
